Measurements from PubChem BioAssay (NCI).
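48-hour exposure; five concentrations; linearly interpolated endpoints. The concentration for 50% growth inhibition is given as GI50. Definition used: TGI = concentration required for complete inhibition of growth.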

Legend:
Assay in all cases: NCI anticancer screen, dose series, 48 h
A498 renal = test system: A498 renal
ACHN renal = test system: ACHN renal
CAKI-1 renal = test system: CAKI-1 renal
COLO 205 colon = test system: COLO 205 colon
DU-145 prostate = test system: DU-145 prostate
HL-60(TB) leukemia = test system: HL-60(TB) leukemia
HS 578T breast = test system: HS 578T breast
KM12 colon = test system: KM12 colon
MCF7 breast = test system: MCF7 breast
MDA-MB-231 breast = test system: MDA-MB-231 breast
MDA-MB-435 = test system: MDA-MB-435
NCI-H226 lung = test system: NCI-H226 lung
NCI/ADR-RES ovarian = test system: NCI/ADR-RES ovarian
OVCAR-4 ovarian = test system: OVCAR-4 ovarian
OVCAR-5 ovarian = test system: OVCAR-5 ovarian
SF-539 CNS = test system: SF-539 CNS
SK-MEL-2 melanoma = test system: SK-MEL-2 melanoma
SK-MEL-28 melanoma = test system: SK-MEL-28 melanoma
SK-OV-3 ovarian = test system: SK-OV-3 ovarian
SN12C renal = test system: SN12C renal
SNB-75 CNS = test system: SNB-75 CNS
T-47D breast = test system: T-47D breast
TK-10 renal = test system: TK-10 renal
UACC-257 melanoma = test system: UACC-257 melanoma
UACC-62 melanoma = test system: UACC-62 melanoma

In the case of `Cc1ccc(NC(=O)c2ccc(CN3CCN(C)CC3)c(I)c2)cc1Oc1ccc(-c2[nH]nc3ncnc(N)c23)cc1`, the GI50 (A498 renal) is reported as 18.8 µM, the TGI (A498 renal) is reported as 38.3 µM and the GI50 (ACHN renal) is reported as 1.8 µM. For the same compound, the TGI (ACHN renal) was 3.33 µM, the GI50 (CAKI-1 renal) was 12 µM and the TGI (CAKI-1 renal) was 28.1 µM. For the same compound, the GI50 (COLO 205 colon) was 1.73 µM, the TGI (COLO 205 colon) was 5.08 µM and the GI50 (DU-145 prostate) was 1.88 µM. The TGI (DU-145 prostate) was 3.45 µM, the GI50 (HL-60(TB) leukemia) was 4.42 µM and the TGI (HL-60(TB) leukemia) was greater than 100 µM. For the same compound, the GI50 (HS 578T breast) was 1.77 µM, the TGI (HS 578T breast) was 5.09 µM and the GI50 (KM12 colon) was 1.79 µM. The TGI (KM12 colon) was 3.59 µM, the GI50 (MCF7 breast) was 1.35 µM and the TGI (MCF7 breast) was 2.94 µM. For the same compound, the GI50 (MDA-MB-231 breast) was 1.85 µM, the TGI (MDA-MB-231 breast) was 3.47 µM and the GI50 (MDA-MB-435) was 1.58 µM. The TGI (MDA-MB-435) was 3.01 µM, the GI50 (NCI-H226 lung) was 23.2 µM and the TGI (NCI-H226 lung) was 84.9 µM. It also gave a GI50 (NCI/ADR-RES ovarian) of 3.93 µM, a TGI (NCI/ADR-RES ovarian) of 40.7 µM and a GI50 (OVCAR-4 ovarian) of 18 µM. It also gave a TGI (OVCAR-4 ovarian) of 40.7 µM, a GI50 (OVCAR-5 ovarian) of 1.94 µM and a TGI (OVCAR-5 ovarian) of 3.52 µM. The GI50 (SF-539 CNS) was 1.26 µM, the TGI (SF-539 CNS) was 2.68 µM and the GI50 (SK-MEL-2 melanoma) was 24.7 µM. It also gave a TGI (SK-MEL-2 melanoma) of 80.1 µM, a GI50 (SK-MEL-28 melanoma) of 1.63 µM and a TGI (SK-MEL-28 melanoma) of 3.12 µM. For the same compound, the GI50 (SK-OV-3 ovarian) was 26.2 µM, the TGI (SK-OV-3 ovarian) was 63.9 µM and the GI50 (SN12C renal) was 12.1 µM. It also gave a TGI (SN12C renal) of 33.8 µM, a GI50 (SNB-75 CNS) of 0.458 µM and a TGI (SNB-75 CNS) of 20.8 µM. It also gave a GI50 (T-47D breast) of 2.72 µM, a TGI (T-47D breast) greater than 100 µM and a GI50 (TK-10 renal) of 5.33 µM. It also gave a TGI (TK-10 renal) of 28 µM, a GI50 (UACC-257 melanoma) of 2.03 µM and a TGI (UACC-257 melanoma) of 4.59 µM. It also gave a GI50 (UACC-62 melanoma) of 1.73 µM and a TGI (UACC-62 melanoma) of 3.35 µM.
